Measurements taken from PMC5374710, “Discovery of the first dual GSK3β inhibitor/Nrf2 inducer. A new multitarget therapeutic strategy for Alzheimer’s disease” (Scientific Reports, 2017).

What was measured:
TNFα = TNFα release induced by LPS in mixed glial cells (ELISA); type: cell-based, rat; conditions: LPS 1 μg/mL
Procedure: (§1) TNFα is considered one of the most important pro-inflammatory cytokines. […] The production of TNFα induced by LPS was reduced by 33% at 10 μM and by 50% at 30 μM. […] To further confirm the anti-inflammatory potential of compound 5c we measured the expression of thre NOX2 enzyme, since this isoform has been widely described as being specific tomicroglial cells. As depicted in Fig. 6F, LPS (1 μg/mL) stimulation of primary glial cultures during 24 h increased the expression of NOX2 by 65.3% (p < 0.01) compared to basal conditions.
(§2) Figure 6 Nitrites (A), TNFα (B), iNOS (C) and NOX activity (E) blockade (D) and NOX2 production (F) by 5c in primary glial cultures stimulated with LPS (1 μg/mL), HO-1 expression induced by this compound after 24 h. […] NOX activity was measured after 4 h co-treatment with LPS and compound 5c. […]
Tumor necrosis factor-alpha (TNFα) concentrations were measured by specific quantitative sandwich ELISA kits (Preprotech, R&D Systems-bioNova, Madrid, Spain) following manufacturer instructions. TNFα levels in supernatant samples, obtained after treatments with culture media (Basal), LPS or LPS co-incubated with increasing concentrations of compound 5c, were measured following manufacturer instructions. […] Light absorption was measured in a microplate reader (Labtech, Offenburg, Germany). […]

NOX2 = NOX2 expression in LPS-stimulated primary glial cultures (western blot); type: cell-based, rat; conditions: 30 μM, LPS 1 μg/mL 24 h (LPS alone 65.3%)
Procedure: as §1, §2
After treatment, mixed glial cells were washed with cold PBS and lysed in 100 μl ice-cold lysis buffer (1% Nonident P-40, 10% glycerol, 137 mM NaCl, 20 mM Tris HCl pH 7.5, 1 μg/ml leupeptin, 1 mM phenylmethylsulfonyl fluoride, 20 mM NaF, 1 mM sodium pyrophosphate, and 1 mM Na3VO4). […] Peroxidase-conjugated secondary antibodies (1:10000) were used to detect proteins by enhanced chemiluminescence detected by Advance Western-blotting Detection Kit (GE Healthcare, Barcelona, Spain). […]

## COc1cccc(C2C(C#N)=C(N)Oc3n[nH]c(C)c32)c1 (stereo not drawn) [Compound 5c, 6-Amino-4-(3-methoxyphenyl)-3-methyl-2,4-dihydropyrano[2,3-c]pyrazole-5-carbonitrile]
TNFα; 10 μM
  Reduction of TNFα production induced by LPS: 33%
TNFα; 30 μM
  Reduction of TNFα production induced by LPS: 50%
NOX2
  NOX2 expression increase compared to basal conditions in presence of LPS: 11.1%
